Measurements published in ChEMBL document CHEMBL4373740, “Synthesis and biological evaluation of new MET inhibitors with 1,6-naphthyridinone scaffold” (Eur J Med Chem, 2020).
pIC50: −log10 of the molar value.

How the values were obtained:
[1] = molecular target: Tyrosine-protein kinase Lyn (Homo sapiens) (UniProt P07948); assay: Inhibition of recombinant human N-terminal GST-tagged LYN A expressed in insect cells at 1 uM using biotin as substrate preincubated for 5 mins followed by substrate addition and measured after 30 to 60 mins in presence of ATP by HTRF assay relative to control
Sequence of Tyrosine-protein kinase Lyn (Homo sapiens) (P07948 2-512 limits assumed): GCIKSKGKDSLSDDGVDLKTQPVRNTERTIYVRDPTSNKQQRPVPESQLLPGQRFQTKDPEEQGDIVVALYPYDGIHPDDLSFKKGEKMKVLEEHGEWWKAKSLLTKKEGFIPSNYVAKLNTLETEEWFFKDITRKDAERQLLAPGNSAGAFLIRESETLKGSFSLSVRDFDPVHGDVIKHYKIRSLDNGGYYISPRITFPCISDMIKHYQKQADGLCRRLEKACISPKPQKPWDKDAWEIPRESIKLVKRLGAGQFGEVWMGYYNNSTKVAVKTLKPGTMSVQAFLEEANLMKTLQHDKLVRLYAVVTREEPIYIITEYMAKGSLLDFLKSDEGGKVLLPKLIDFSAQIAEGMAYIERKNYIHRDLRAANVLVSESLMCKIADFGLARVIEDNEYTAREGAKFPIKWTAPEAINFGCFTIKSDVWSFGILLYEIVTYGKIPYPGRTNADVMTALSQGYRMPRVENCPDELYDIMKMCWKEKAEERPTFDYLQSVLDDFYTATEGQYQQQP

[2] = molecular target: Mitogen-activated protein kinase kinase kinase 20 (Homo sapiens) (UniProt Q9NYL2); assay: Inhibition of recombinant full length human GST-tagged ZAK expressed in baculovirus expression system at 1 uM using biotin as substrate preincubated for 5 mins followed by substrate addition and measured after 30 to 60 mins in presence of ATP by HTRF assay relative to control
Sequence of Mitogen-activated protein kinase kinase kinase 20 (Homo sapiens) (Q9NYL2 2-800 limits assumed): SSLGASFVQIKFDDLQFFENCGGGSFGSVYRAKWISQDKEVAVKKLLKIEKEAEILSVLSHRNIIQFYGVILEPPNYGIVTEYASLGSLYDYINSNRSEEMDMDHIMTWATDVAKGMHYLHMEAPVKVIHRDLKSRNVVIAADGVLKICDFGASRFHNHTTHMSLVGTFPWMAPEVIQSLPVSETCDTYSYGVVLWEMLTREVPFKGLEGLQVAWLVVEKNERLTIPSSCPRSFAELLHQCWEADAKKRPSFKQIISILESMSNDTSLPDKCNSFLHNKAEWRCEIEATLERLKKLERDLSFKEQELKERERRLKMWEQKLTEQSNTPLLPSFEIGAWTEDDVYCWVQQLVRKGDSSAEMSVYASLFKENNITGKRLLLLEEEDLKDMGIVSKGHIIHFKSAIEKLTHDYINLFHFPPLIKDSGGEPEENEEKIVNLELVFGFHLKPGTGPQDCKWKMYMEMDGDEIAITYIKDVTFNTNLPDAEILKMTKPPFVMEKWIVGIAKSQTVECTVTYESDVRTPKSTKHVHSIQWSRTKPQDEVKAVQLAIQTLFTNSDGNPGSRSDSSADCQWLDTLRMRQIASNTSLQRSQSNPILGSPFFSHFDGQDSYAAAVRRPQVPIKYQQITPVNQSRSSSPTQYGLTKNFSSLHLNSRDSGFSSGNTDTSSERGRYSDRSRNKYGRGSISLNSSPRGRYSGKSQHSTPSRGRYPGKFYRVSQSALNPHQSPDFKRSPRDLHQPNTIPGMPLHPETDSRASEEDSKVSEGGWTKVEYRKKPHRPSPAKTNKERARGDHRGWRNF

[3] = molecular target: Serine/threonine-protein kinase PLK1 (Homo sapiens) (UniProt P53350); assay: Inhibition of recombinant full length human His-tagged PLK1 expressed in baculovirus expression system at 1 uM using biotin as substrate preincubated for 5 mins followed by substrate addition and measured after 30 to 60 mins in presence of ATP by HTRF assay relative to control
Sequence of Serine/threonine-protein kinase PLK1 (Homo sapiens) (P53350 whole entry): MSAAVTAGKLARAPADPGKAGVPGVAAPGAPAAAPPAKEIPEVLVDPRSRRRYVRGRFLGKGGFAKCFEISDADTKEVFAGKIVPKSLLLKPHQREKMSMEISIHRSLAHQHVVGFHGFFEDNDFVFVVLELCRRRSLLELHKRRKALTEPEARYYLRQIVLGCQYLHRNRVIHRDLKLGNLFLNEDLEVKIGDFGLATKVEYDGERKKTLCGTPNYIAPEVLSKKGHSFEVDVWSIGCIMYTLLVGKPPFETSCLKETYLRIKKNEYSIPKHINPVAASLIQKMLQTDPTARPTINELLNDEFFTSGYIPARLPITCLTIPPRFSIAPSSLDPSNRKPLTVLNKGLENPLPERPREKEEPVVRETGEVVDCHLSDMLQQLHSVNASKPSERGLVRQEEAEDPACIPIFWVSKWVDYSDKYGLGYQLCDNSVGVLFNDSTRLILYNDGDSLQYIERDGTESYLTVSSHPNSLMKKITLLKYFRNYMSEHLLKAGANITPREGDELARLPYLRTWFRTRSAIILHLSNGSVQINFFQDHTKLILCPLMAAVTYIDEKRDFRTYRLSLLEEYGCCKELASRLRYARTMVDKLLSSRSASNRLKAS

[4] = molecular target: Proto-oncogene tyrosine-protein kinase Src (Homo sapiens) (UniProt P12931); assay: Inhibition of recombinant full length human untagged SRC expressed in baculovirus expression system at 1 uM using biotin as substrate preincubated for 5 mins followed by substrate addition and measured after 30 to 60 mins in presence of ATP by HTRF assay relative to control
Sequence of Proto-oncogene tyrosine-protein kinase Src (Homo sapiens) (P12931 2-536 limits assumed): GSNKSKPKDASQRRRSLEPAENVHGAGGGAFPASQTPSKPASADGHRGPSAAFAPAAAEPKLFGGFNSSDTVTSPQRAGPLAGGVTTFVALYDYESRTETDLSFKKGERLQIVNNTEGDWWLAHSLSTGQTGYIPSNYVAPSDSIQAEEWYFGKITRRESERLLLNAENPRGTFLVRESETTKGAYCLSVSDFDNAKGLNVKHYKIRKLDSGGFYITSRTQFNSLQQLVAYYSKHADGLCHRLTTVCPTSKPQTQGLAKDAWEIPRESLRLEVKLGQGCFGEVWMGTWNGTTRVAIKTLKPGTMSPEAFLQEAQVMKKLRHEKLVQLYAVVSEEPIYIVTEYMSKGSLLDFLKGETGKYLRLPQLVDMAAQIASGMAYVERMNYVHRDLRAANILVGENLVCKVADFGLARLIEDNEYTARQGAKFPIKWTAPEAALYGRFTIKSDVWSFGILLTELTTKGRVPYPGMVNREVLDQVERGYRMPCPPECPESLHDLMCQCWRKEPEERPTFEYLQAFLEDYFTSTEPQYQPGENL

[5] = molecular target: Tyrosine-protein kinase Fgr (Homo sapiens) (UniProt P09769); assay: Inhibition of recombinant full length human His-tagged FGR expressed in baculovirus expression system at 1 uM using biotin as substrate preincubated for 5 mins followed by substrate addition and measured after 30 to 60 mins in presence of ATP by HTRF assay relative to control
Sequence of Tyrosine-protein kinase Fgr (Homo sapiens) (P09769 2-529 limits assumed): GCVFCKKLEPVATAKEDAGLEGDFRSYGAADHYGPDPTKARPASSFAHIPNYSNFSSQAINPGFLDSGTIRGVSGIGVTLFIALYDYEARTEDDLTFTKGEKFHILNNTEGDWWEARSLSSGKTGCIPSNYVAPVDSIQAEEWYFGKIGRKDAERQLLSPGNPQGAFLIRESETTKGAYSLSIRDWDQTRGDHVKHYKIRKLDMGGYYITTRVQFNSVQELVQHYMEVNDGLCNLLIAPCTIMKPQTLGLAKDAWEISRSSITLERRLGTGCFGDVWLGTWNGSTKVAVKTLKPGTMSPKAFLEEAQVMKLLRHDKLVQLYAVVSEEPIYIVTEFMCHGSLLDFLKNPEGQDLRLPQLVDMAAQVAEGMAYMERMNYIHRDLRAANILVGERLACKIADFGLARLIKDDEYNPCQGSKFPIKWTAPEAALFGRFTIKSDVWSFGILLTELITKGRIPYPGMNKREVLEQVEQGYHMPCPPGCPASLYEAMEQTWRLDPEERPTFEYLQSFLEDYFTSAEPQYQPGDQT

Angiopoietin-1 receptor = Angiopoietin-1 receptor (Homo sapiens, UniProt Q02763); assay: Inhibition of recombinant human GST-tagged TEK (817 to 1101 residues) expressed in baculovirus expression system using biotin as substrate preincubated for 5 mins followed by substrate addition and measured after 30 to 60 mins in presence of ATP by HTRF assay
Sequence of Angiopoietin-1 receptor (Q02763 whole entry, the tested form may be a part): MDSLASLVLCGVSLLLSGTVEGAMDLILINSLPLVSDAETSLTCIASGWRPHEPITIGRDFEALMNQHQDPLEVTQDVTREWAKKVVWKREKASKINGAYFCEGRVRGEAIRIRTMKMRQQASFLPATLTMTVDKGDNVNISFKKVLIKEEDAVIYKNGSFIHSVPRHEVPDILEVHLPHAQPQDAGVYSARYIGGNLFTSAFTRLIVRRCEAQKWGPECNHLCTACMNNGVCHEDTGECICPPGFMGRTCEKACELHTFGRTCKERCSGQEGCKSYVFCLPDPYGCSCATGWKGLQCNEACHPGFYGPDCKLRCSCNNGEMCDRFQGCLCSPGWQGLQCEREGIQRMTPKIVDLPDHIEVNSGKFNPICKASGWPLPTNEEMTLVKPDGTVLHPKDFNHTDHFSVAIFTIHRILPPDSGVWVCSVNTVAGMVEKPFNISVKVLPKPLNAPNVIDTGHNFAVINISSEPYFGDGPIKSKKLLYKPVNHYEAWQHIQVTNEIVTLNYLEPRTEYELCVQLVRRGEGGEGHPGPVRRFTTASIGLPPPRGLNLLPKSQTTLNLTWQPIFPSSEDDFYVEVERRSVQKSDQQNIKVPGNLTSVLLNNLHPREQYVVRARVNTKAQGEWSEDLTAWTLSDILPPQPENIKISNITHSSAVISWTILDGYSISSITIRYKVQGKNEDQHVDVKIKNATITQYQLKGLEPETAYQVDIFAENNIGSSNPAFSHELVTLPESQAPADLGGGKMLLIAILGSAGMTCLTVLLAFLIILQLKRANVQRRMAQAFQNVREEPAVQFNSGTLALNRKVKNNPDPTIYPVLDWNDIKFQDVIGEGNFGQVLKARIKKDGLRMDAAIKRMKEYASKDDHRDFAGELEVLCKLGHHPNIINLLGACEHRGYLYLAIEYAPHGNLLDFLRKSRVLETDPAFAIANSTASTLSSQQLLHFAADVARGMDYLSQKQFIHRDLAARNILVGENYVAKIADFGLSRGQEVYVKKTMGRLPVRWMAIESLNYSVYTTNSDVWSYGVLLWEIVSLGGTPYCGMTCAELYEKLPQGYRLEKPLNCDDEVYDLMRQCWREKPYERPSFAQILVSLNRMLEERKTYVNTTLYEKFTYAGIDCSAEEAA

Cn1cc(-c2ccc(F)cc2)c(=O)c2c(Nc3ccc(Oc4ccnc(NC(=O)C5CC5)c4)c(F)c3)nccc21
inhibition [1]: < 50%
inhibition [2]: < 50%
inhibition [3]: < 50%
inhibition [4]: < 50%
inhibition [5]: > 80%
pIC50 (Angiopoietin-1 receptor): 7.58
